Like-named read-outs stand apart in the source and are kept apart here.
Legend:
[1] = test system: expanded OPCs; test: cells; details: for viability at 0.1 µM / viability at 1 µM / viability at 10 µM: Rattus norvegicus, 72 h; for 0.1 µM (% DMSO) / 1 µM (% DMSO) / 10 µM (% DMSO): alamarBlue viability of expanded OPCs, relative to DMSO control; for 0.1 µM (% DMSO): compound at 0.1 µM; for 1 µM (% DMSO): compound at 1 µM; for 10 µM (% DMSO): compound at 10 µM
Procedure, shortened: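 Expanded OPCs seeded at 10,000 cells/well in differentiation media, then exposed to NCC library compounds at 10, 1 and 0.1 µM (quadruplicate, 0.1% DMSO) for three days. Viability read as alamarBlue fluorescence (560/590 nm) after 4 h at 37 °C; tunicamycin 5 ng/ml served as toxicity control.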

[2] = test system: acutely dissociated and purified rat OPCs; test: Acute OL differentiation assay (MBP expression/cell, immunofluorescent image quantification); assay type: cell-based; details: Rattus norvegicus, sheet "All OLga data"; for activation at 0.08 µM: test compound at 0.08 uM, read-out: 0.08 uM (% Quet)
Procedure, shortened: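 Oligodendrocyte precursor cells were enriched from P6-P7 Sprague–Dawley rat brains by immunopanning (RAN-2 and GalC depletion, O4 selection), plated at 5000 cells/well in serum-free, mitogen-free differentiation media on PDL/laminin 96-well view plates, centrifuged at 200×g, and pre-incubated 1–2 h before test compounds were added in quadruplicate. On DIV4, cells were fixed, stained for MBP and DAPI, imaged automatically, and MBP expression per cell was quantified.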

[3] = read-out: 0.1 µM (% DMSO), alamarBlue viability of expanded OPCs, compound at 0.1 µM, sheet All Tox data
[4] = read-out: 1 µM (% DMSO), alamarBlue viability of expanded OPCs, compound at 1 µM, sheet All Tox data
[5] = read-out: 10 µM (% DMSO), alamarBlue viability of expanded OPCs, compound at 10 µM, sheet All Tox data
[6] = 2 uM test compound, relative to quetiapine, read-out: OL differentiation, 2 uM (% Quet)
[7] = 10 uM test compound, relative to quetiapine, read-out: OL differentiation, 10 uM (% Quet)
[8] = NCC library screen, relative to quetiapine
[9] = test compound at 0.4 uM, NCC library screen, relative to quetiapine, read-out: 0.4 uM (% Quet)
[10] = test compound at 2 uM, NCC library screen, relative to quetiapine, read-out: 2 uM (% Quet)
[11] = test compound at 10 uM, NCC library screen, relative to quetiapine, read-out: 10 uM (% Quet)
[12] = 0.4 uM test compound, relative to quetiapine, read-out: OL differentiation, 0.4 uM (% Quet)
[13] = read-out: 0.1 µM (% DMSO), alamarBlue viability, NCC library compound at 0.1 µM, sheet "All Tox data"
[14] = read-out: 1 µM (% DMSO), alamarBlue viability, NCC library compound at 1 µM, sheet "All Tox data"
[15] = read-out: 10 µM (% DMSO), alamarBlue viability, NCC library compound at 10 µM, sheet "All Tox data"
[16] = test compound at 2 uM, MBP expression relative to quetiapine, NCC library screen, read-out: 2 uM (% Quet)
[17] = test compound at 10 uM, MBP expression relative to quetiapine, NCC library screen, read-out: 10 uM (% Quet)

Row | SMILES | viability at 0.1 µM [1, 3] [%] | viability at 1 µM [1, 4] [%] | viability at 10 µM [1, 5] [%] | activation at 2 µM [2, 6] [%] | activation at 10 µM [2, 7] [%] | other results
1 | c1cncc([C@@H]2CCCN2)c1 [Nornicotine] | 86 | 101 | 98.4 | 18.1 | 10.4 | 
2 | CNCCC=C1c2ccccc2CCc2ccccc21 [Nortriptyline] |  |  |  |  |  | 0.1 µM (% DMSO) [1]: 66.6 % DMSO; 1 µM (% DMSO) [1]: 28.2 % DMSO; 10 µM (% DMSO) [1]: 13.8 % DMSO; activation at 0.08 µM [2, 8]: 2.3%; activation at 0.4 µM [2, 9]: -28.1%
3 | CC1COc2c(N3CCN(C)CC3)c(F)cc3c(=O)c(C(=O)O)cn1c23 (centres unmarked) [Ofloxacin] | 95.3 | 91.5 | 99.5 | -4.3 | 4.9 | 0.1 µM (% DMSO) [1]: 93.4 % DMSO; 1 µM (% DMSO) [1]: 91.6 % DMSO; 10 µM (% DMSO) [1]: 89.4 % DMSO; activation at 2 µM [2, 10]: 3.8%; activation at 10 µM [2, 11]: -3.8%
4 | Cc1cc2c(s1)Nc1ccccc1N=C2N1CCN(C)CC1 [Olanzapine] | 90.8 | 60.6 | 30.2 | -9.8 |  | activation at 0.4 µM [2, 12]: -3%
5 | CC[C@@H]1C=CC=CC[C@H](C)[C@@H](O)[C@@H](C)C(=O)[C@H](C)[C@@H](O)[C@H](C)C(=O)[C@H](C)[C@@H](O)[C@H](C)C=CC(=O)O[C@H]2[C@@H](C)[C@@H](CC1)O[C@@]1(CC[C@@H](C)[C@@H](C[C@H](C)O)O1)[C@@H]2C [Oligomycin C] | 86.9 | 87 | 68.4 | -33.8 | -128 | 
6 | CCCc1nc(C(C)(C)O)c(C(=O)O)n1Cc1ccc(-c2ccccc2-c2nnn[nH]2)cc1 [Olmesartan] | 91.4 | 87.4 | 93.9 | -15.6 | -11.9 | 
7 | CN(C)CC/C=C1/c2ccccc2COc2ccc(CC(=O)O)cc21 [Olopatadine] |  |  |  |  |  | viability at 0.1 µM [1, 13]: 88.7%; viability at 1 µM [1, 14]: 89.3%; viability at 10 µM [1, 15]: 77.6%; activation at 2 µM [2, 10]: -29.3%; activation at 10 µM [2, 11]: -29%
8 | COc1ccc2[nH]c([S+]([O-])Cc3ncc(C)c(OC)c3C)nc2c1 (centres unmarked) [Omeprazole] |  |  |  |  |  | viability at 0.1 µM [1, 13]: 84.3%; viability at 1 µM [1, 14]: 88.4%; viability at 10 µM [1, 15]: 85.8%; activation at 2 µM [2, 10]: -5.2%; activation at 10 µM [2, 11]: 5.2%
9 | Cc1nccn1CC1CCc2c(c3ccccc3n2C)C1=O (centres unmarked) [Ondansetron] | 92.9 | 92.2 | 102 | 4.2 | -7.7 | 0.1 µM (% DMSO) [1]: 95.7 % DMSO; 1 µM (% DMSO) [1]: 92.7 % DMSO; 10 µM (% DMSO) [1]: 90.9 % DMSO; activation at 2 µM [2, 16]: 3%; activation at 10 µM [2, 17]: 3.5%
10 | CCCCCCCCCCC[C@@H](C[C@@H]1OC(=O)[C@H]1CCCCCC)OC(=O)[C@H](CC(C)C)NC=O [Orlistat] | 80.3 | 80.1 | 12.5 | -43.8 |  | activation at 0.4 µM [2, 12]: 4.3%
11 | COc1cc(C)c(Cc2cnc(N)nc2N)cc1OC [Ormetoprim] | 101 | 91 | 95.4 | -23.4 | -8.2 | 
12 | Cc1ncc([N+](=O)[O-])n1CC(O)CCl (centres unmarked) [Ornidazole] |  |  |  | 4.7 | 13 | viability at 0.1 µM [1, 13]: 106%; viability at 1 µM [1, 14]: 91.3%; viability at 10 µM [1, 15]: 82.2%
13 | CCN(CC)CC1CCCCN1CC(=O)N1c2ccccc2C(=O)Nc2cccnc21 (centres unmarked) [Otenzepad] |  |  |  |  |  | viability at 0.1 µM [1, 13]: 91.2%; viability at 1 µM [1, 14]: 81.4%; viability at 10 µM [1, 15]: 75.7%; activation at 2 µM [2, 10]: 11.2%; activation at 10 µM [2, 11]: 13.5%
14 | Cc1onc(-c2ccccc2)c1C(=O)N[C@@H]1C(=O)N2[C@@H]1SC(C)(C)[C@@H]2C(=O)O [Oxacillin] |  |  |  |  |  | 0.1 µM (% DMSO) [1]: 96.9 % DMSO; 1 µM (% DMSO) [1]: 96.8 % DMSO; 10 µM (% DMSO) [1]: 93.4 % DMSO; activation at 2 µM [2, 16]: -14.9%; activation at 10 µM [2, 17]: -26.1%
15 | O=C(O)CCc1nc(-c2ccccc2)c(-c2ccccc2)o1 [Oxaprozin] | 91.8 | 86.6 | 78 | -15.3 | -15 | 
16 | NC(=O)N1c2ccccc2CC(=O)c2ccccc21 [Oxcarbazepine] | 102 | 92 | 73.5 | -28.9 | -57.8 | 
17 | Clc1ccc(CO/N=C(\Cn2ccnc2)c2ccc(Cl)cc2Cl)c(Cl)c1 [Oxiconazole] | 131 | 195 | 11.7 |  |  | activation at 0.4 µM [2, 12]: 96.5%
18 | C[C@]12C/C(=C/O)C(=O)C[C@@H]1CC[C@@H]1[C@@H]2CC[C@@]2(C)[C@H]1CC[C@]2(C)O [Oxymetholone] | 82.4 | 79.2 | 48.9 | -31.7 |  | activation at 0.4 µM [2, 12]: -20%
19 | CN1CC[C@]23c4c5ccc(O)c4O[C@H]2c2[nH]c4ccccc4c2C[C@@]3(O)[C@H]1C5 [Oxymorphindole] |  |  |  |  |  | viability at 0.1 µM [1, 13]: 85.7%; viability at 1 µM [1, 14]: 54.1%; viability at 10 µM [1, 15]: 12%; activation at 0.08 µM [2, 8]: -8.6%; activation at 0.4 µM [2, 9]: -51.8%
20 | CC[N+](C)(CC)CCOC(=O)C(O)(c1ccccc1)C1CCCCC1 (centres unmarked) [Oxyphenonium] |  |  |  |  |  | viability at 0.1 µM [1, 13]: 92.5%; viability at 1 µM [1, 14]: 97.2%; viability at 10 µM [1, 15]: 94.9%; activation at 2 µM [2, 10]: -6.1%; activation at 10 µM [2, 11]: 36.4%
21 | CN(C)[C@@H]1C(O)=C(C(N)=O)C(=O)[C@@]2(O)C(O)=C3C(=O)c4c(O)cccc4[C@@](C)(O)[C@H]3[C@H](O)[C@@H]12 [Oxytetracycline] |  |  |  |  |  | 0.1 µM (% DMSO) [1]: 98.0 % DMSO; 1 µM (% DMSO) [1]: 97.7 % DMSO; 10 µM (% DMSO) [1]: 93.6 % DMSO; activation at 2 µM [2, 16]: -42.7%; activation at 10 µM [2, 17]: -36.7%
22 | O=C(O)/C=C/c1ccc(Cn2ccnc2)cc1 [Ozagrel] | 82.8 | 85.9 | 92.2 | -6.1 | -20.6 | 
